Test results as given in paper PMC8085067, “The dimer-monomer equilibrium of SARS-CoV-2 main protease is affected by small molecule inhibitors” (Scientific Reports, 2021).
“Also recorded” adds a separate entry of the source.

Target: SARS-CoV-2 M^pro dimer-monomer equilibrium (Severe acute respiratory syndrome coronavirus 2, UniProt P0DTD1)
Assay: SAXS analysis of M^pro dimer-monomer equilibrium in presence of inhibitors
Details: for effect on M^pro dimer-monomer equilibrium (in words): SAXS; for αCp (rate of change of dissociation heat capacity with inhibitor concentration) / αS (rate of change of dissociation entropy with inhibitor concentration) / αG (rate of change of dissociation Gibbs free energy with inhibitor concentration): global SAXS fit, M^pro 30 μM; for αG (rate of change of dissociation Gibbs free energy with inhibitor concentration): inhibitor 30 and 60 μM, 30-45 °C

| SMILES | effect on M^pro dimer-monomer equilibrium (in words) | αCp (rate of change of dissociation heat capacity with inhibitor concentration) | αS (rate of change of dissociation entropy with inhibitor concentration) | αG (rate of change of dissociation Gibbs free energy with inhibitor concentration) |
| --- | --- | --- | --- | --- |
| OCCN(CCOc1c(F)c(F)c(-c2nc(-c3ccncc3)no2)c(F)c1F)CCOc1c(F)c(F)c(-c2nc(-c3ccncc3)no2)c(F)c1F [Inhibitor 3] | do not affect in a significant way the dimer-monomer equilibrium; also recorded: does not alter the native dissociation equilibrium | 0±4 10^-2 μM^-1 | -8±4 10^-2 μM^-1 | 0.00±0.08 10^-2 μM^-1 |
| Fc1c(F)c(N2CCOCCOCCOCCOCCOCC2)c(F)c(F)c1-c1nc(-c2ccccc2)no1 [Inhibitor 4, 16-(2,3,5,6-tetrafluoro-4-(3-phenyl-1,2,4-oxadiazol-5-yl)phenyl)-1,4,7,10,13-pentaoxa-16-azacyclooctadecane] | do not affect in a significant way the dimer-monomer equilibrium; also recorded: very weak stabilizing effect of the dimer | -2±2 10^-2 μM^-1 | -1±5 10^-2 μM^-1 | 0.0±0.1 10^-2 μM^-1 |
| CCNC(=O)c1noc(-c2c(F)c(F)c(NCCN(CCNc3c(F)c(F)c(-c4nc(C(=O)NCC)no4)c(F)c3F)CCNc3c(F)c(F)c(-c4nc(C(=O)NCC)no4)c(F)c3F)c(F)c2F)n1 [Inhibitor 7, 5,5’,5”-(((nitrilotris(ethane-2,1-diyl))tris(azanediyl))tris(2,3,5,6-tetrafluorobenzene-4,1-diyl))tris(N-ethyl-1,2,4-oxadiazole-3-carboxamide)] | mostly able to increase the dissociation equilibrium constant | -3±3 10^-2 μM^-1 | -5±2 10^-2 μM^-1 | -0.19±0.07 10^-2 μM^-1 |
